Measured values as given in US20090227587A1, “Pyrimidines as inhibitors of phosphoinositide-3-kinases (PI3K)” (Warner-Lambert Company LLC, priority 2003, published 2009).

The molecules below were run against T1, p101/p110γ protein (PI3Kγ) (Homo sapiens, UniProt P48736) (assay: PI3Kγ in vitro kinase assay). Settings: purified recombinant p101/p110γ with G protein β1/γ2 subunits, 20 μM ATP, PIP2 lipid micelles.
T1 construct: HA; made in house; host or cells: Spodoptera frugiperda (Sf9) cells, baculovirus co-infection
T1 sequence (P48736 whole entry, species assumed): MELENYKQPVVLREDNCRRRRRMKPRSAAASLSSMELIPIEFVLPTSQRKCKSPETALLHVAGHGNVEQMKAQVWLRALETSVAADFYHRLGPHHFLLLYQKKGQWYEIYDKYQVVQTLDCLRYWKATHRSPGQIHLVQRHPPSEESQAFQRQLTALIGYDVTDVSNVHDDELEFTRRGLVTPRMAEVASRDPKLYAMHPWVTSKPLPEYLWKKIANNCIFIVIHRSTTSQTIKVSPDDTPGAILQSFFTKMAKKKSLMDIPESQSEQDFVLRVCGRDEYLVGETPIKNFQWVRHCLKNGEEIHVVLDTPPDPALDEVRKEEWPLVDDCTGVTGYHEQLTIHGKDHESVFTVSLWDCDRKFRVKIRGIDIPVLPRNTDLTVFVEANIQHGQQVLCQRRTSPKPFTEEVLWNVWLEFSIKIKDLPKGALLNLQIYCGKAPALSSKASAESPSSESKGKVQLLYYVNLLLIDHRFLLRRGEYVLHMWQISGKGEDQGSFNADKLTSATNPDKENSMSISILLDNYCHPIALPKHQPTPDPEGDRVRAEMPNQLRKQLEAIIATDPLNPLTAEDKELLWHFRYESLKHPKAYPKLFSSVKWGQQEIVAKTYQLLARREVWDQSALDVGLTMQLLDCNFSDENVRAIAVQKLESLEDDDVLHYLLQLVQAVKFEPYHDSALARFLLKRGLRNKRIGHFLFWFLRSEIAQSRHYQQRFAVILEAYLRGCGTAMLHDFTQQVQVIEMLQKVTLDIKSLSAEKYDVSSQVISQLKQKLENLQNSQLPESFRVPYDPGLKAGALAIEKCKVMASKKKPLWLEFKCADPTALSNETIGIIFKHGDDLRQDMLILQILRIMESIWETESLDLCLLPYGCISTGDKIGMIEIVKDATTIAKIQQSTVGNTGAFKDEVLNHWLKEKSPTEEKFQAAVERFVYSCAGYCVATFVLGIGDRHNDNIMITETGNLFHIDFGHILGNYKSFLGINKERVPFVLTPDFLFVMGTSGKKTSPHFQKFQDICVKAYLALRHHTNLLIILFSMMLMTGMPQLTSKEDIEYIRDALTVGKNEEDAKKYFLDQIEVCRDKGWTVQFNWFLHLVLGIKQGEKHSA
T1 sequence (Q8WYR1 whole entry partner, species assumed): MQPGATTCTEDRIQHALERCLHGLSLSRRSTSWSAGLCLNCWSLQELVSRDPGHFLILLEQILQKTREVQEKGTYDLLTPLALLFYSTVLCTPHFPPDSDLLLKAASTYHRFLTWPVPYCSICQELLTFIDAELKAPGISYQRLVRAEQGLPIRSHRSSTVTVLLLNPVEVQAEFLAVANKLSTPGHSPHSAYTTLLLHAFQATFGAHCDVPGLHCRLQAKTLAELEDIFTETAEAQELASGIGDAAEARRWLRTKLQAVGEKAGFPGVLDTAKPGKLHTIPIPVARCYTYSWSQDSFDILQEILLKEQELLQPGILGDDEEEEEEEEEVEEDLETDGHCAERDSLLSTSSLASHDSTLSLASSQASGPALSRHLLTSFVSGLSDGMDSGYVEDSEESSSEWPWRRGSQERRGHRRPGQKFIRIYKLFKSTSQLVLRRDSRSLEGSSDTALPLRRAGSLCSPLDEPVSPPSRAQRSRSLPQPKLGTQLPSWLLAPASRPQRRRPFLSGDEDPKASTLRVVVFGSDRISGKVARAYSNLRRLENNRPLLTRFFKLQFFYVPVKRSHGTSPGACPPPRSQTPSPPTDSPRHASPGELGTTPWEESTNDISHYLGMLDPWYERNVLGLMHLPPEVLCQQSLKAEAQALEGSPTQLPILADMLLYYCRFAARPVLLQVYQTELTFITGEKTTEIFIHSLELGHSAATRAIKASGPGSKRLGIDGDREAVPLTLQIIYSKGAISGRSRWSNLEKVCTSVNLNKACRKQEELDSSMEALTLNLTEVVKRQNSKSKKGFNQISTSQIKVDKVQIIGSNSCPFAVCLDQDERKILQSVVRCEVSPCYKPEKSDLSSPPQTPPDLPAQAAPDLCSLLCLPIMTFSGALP
Format: biochemical
Description: Spodtera frugiperda cells, grown in ESF921 media, were co-infected with baculovirus expressing a glu-tagged p101 and baculovirus expressing an HA-tagged p110γ, at a 3:1 ratio of p101 baculovirus to p110γ baculovirus. Sf9 cells were grown to 1×10^7 total cells/mL in 10 L bioreactors and harvested 48-72 hours post infection. Samples of infected cells were then tested for expression of p101/p110γ PI3 kinase by immunoprecipitation and Western Blot analysis methods (see below).
To purify PI3Kγ, 4 volumes of room temperature hypotonic lysis buffer (1 mM MgCl2, 1 mM DTT, 5 mM EGTA, 1 mM Pefabloc, 0.5 μM aprotinin, 5 μM leupeptin, 2 μM pepstatin, 5 μM E64, pH 8) per gram of cell paste, was poured onto frozen cell pellets with stirring, then lysed in a nitrogen “bomb” at 400 psi (599HC T316, Parr Instrument Co, Moline, Ill.). NaCl was added to 150 mM, and sodium cholate was added to 1% and mixed for another 45 minutes. The lysates were clarified by centrifugation for 25 minutes at 14,000 rpm. The lysates were then loaded over anti-glu-linked Protein-G Sepaharose beads (Covance Research Products, Richmond, Calif.) using 20 mL resin/50 g cell paste. The column was washed with 15 volumes of wash buffer (1 mM DTT, 0.2 mM EGTA, 1 mM Pefabloc, 0.5 μM aprotinin, 5 μM leupeptin, 2 μM pepstatin, 5 μM E64, 150 mM NaCl, 1% sodium cholate, pH 8). PI3Kγ was eluted with 6 column volumes of wash buffer that contain 100 μg/mL of a peptide that competes for binding of the glu tag. The column fractions with the eluted protein (determined by taking OD280 readings) were collected and dialyzed in 0.2 mM EGTA, 1 mM DTT, 1 mM Pefabloc, 5 μM leupeptin, 0.5% sodium cholate, 150 mM NaCl, and 50% glycerol, pH 8. The fractions were stored at −80° C. until further use.
Spodtera frugiperda cells were coinfected with baculovirus expressing a glu-tagged G protein β1 and baculovirus expressing a G protein […], at a 1:1 ratio of glu-tagged G protein […] baculovirus to G protein β2 baculovirus. Sf9 cells are grown in 10 L bioreactors and harvested 48-72 hours post infection. Samples of infected cells were tested for G protein β1/β2 expression by Western Blot analysis, as described below. Cell lysates were homogenized and loaded onto a column of glu-tagged beads as in Biological Example 1 and competed off the column with a glu peptide and processed as described in Biological Example 1.
The inhibitory properties of the compounds in Table 1 were assayed in an in vitro PI3K assay. In a 96-well polypropylene plate, each well was spotted with 2 μL of 50 times the desired final concentration of compound in DMSO. Purified recombinant p101/p110γ protein (0.03 μg; ˜2.7 nM) and G protein β1/γ2 subunits (0.09 μg; ˜57.7 nM) for each reaction was combined in the assay buffer (30 mM HEPES, 100 mM NaCl, 1 mM EGTA, and 1 mM DTT). ATP and [γ-^32P-ATP] (0.09 μCi) were added to this mixture so that the final ATP concentration in the reaction was 20 μM. Lipid micelles were formed by sonicating phosphatidylinositol-4,5-diphosphate (PIP2), phosphatidylethanolamine (PE), and Na-cholate in the assay buffer for 10 minutes, adding MgCl2 and incubating on ice for 20 minutes, for final concentrations of 25 μM PIP2, 300 μM PE, 0.02% Na-cholate, and 10 mM MgCl2 in the reaction. The reactions were started by adding equal volumes lipid and enzyme mixture in a total volume of 50 μL, allowed to run for 20 minutes at room temperature, and stopped with 100 μL 75 mM H3PO4. The lipid product was transferred to a glass fiber filter plate and washed with 75 mM H3PO4 several times. The presence of radioactive lipid product (PIP3) was measured by adding Wallac Optiphase mix to each well and counting in a Wallac 1450 Trilux plate reader (PerkinElmer Life Sciences Inc., Boston, Mass. 02118). The IC50 for each compound tested is reported in μM in the Tables above.
Work on `O=C(Nc1nn[nH]n1)c1cnc(N2CCOCC2)nc1OC1CCCC1` [Example 2, 4-Cyclopentyloxy-2-morpholin-4-yl-pyrimidine-5-carboxylic acid (2H-tetrazol-5-yl)-amide] yielded an IC50 of 1540 nM. `CC(C)Oc1nc(N2CCOCC2)ncc1C(=O)Nc1nn[nH]n1` [Example 3, 4-Isopropoxy-2-morpholin-4-yl-pyrimidine-5-carboxylic acid (2H-tetrazol-5-yl)-amide] showed an IC50 of 87500 nM. For `O=C(Nc1nn[nH]n1)c1cnc(N2CCOCC2)nc1OC1CCCCC1` [Example 4, 4-Cyclohexyloxy-2-morpholin-4-yl-pyrimidine-5-carboxylic acid (2H-tetrazol-5-yl)-amide], the IC50 was 1740 nM. `O=C(Nc1nn[nH]n1)c1cnc(N2CCOCC2)nc1OC1CCCCCCC1` [Example 5, 4-Cyclooctyloxy-2-morpholin-4-yl-pyrimidine-5-carboxylic acid (2H-tetrazol-5-yl)-amide] gave an IC50 of 502 nM. `O=C(Nc1nn[nH]n1)c1cnc(N2CCOCC2)nc1OCCC1CCCCC1` [Example 6, 4-(2-Cyclohexyl-ethoxy)-2-morpholin-4-yl-pyrimidine-5-carboxylic acid (2H-tetrazol-5-yl)-amide] gave an IC50 of 10100 nM. `O=C(Nc1nn[nH]n1)c1cnc(N2CCOCC2)nc1OCC1CCCCC1` [Example 7, 4-Cyclohexylmethoxy-2-morpholin-4-yl-pyrimidine-5-carboxylic acid (2H-tetrazol-5-yl)-amide] was tested, and the IC50 was 1840 nM. `COCCOc1nc(N2CCOCC2)ncc1C(=O)Nc1nn[nH]n1` [Example 8, 4-(2-Methoxy-ethoxy)-Z-morpholin-4-yl-pyrimidine-5-carboxylic acid (2H-tetrazol-5-yl)-amide] was tested, and the IC50 was 2320 nM. `CC1(C)CCCC(Oc2nc(N3CCOCC3)ncc2C(=O)Nc2nn[nH]n2)C1` (stereo not drawn) [Example 9, 4-(3,3-Dimethyl-cyclohexyloxy)-2-morpholin-4-yl-pyrimidine-5-carboxylic acid (2H-tetrazol-5-yl)-amide] gave an IC50 of 1360 nM. Molecule `O=C(Nc1nn[nH]n1)c1cnc(N2CCOCC2)nc1OC1CCOCC1` [Example 10, 2-Morpholin-4-yl-4-(tetrahydro-pyran-4-yloxy)-pyrimidine-5-carboxylic acid (2H-tetrazol-5-yl)-amide] has an IC50 of 10500 nM. In the case of `O=C(Nc1nn[nH]n1)c1cnc(N2CCOCC2)nc1OC1C2CC3CC(C2)CC1C3` (stereo not drawn) [Example 11, 4-(Adamantan-2-yloxy)-2-morpholin-4-yl-pyrimidine-5-carboxylic acid (2H-tetrazol-5-yl)-amide], the IC50 is reported as 485 nM. `O=C(Nc1nn[nH]n1)c1cnc(N2CCOCC2)nc1OC1CC2CCC1C2` (stereo not drawn) [Example 12, 4-(Bicyclo[2.2.1]hept-2-yloxy)-2-morpholin-4-yl-pyrimidine-5-carboxylic acid (2H-tetrazol-5-yl)-amide] showed an IC50 of 845 nM. `CC(C)(C)COc1nc(N2CCOCC2)ncc1C(=O)Nc1nn[nH]n1` [Example 13, 4-(2,2-Dimethyl-propoxy)-2-morpholin-4-yl-pyrimidine-5-carboxylic acid (2H-tetrazol-5-yl)-amide] was tested, and the IC50 was 2060 nM. `CC(C)C(C)Oc1nc(N2CCOCC2)ncc1C(=O)Nc1nn[nH]n1` (stereo not drawn) [Example 14, 4-(1,2-Dimethyl-propoxy)-2-morpholin-4-yl-pyrimidine-5-carboxylic acid (2H-tetrazol-5-yl)-amide] showed an IC50 of 1160 nM. Work on `CC1(COc2nc(N3CCOCC3)ncc2C(=O)Nc2nn[nH]n2)CC1` [Example 15, 4-(1-Methyl-cyclopropylmethoxy)-2-morpholin-4-yl-pyrimidine-5-carboxylic acid (2H-tetrazol-5-yl)-amide] yielded an IC50 of 1690 nM. For `CC1CC(C)CC(Oc2nc(N3CCOCC3)ncc2C(=O)Nc2nn[nH]n2)C1` (stereo not drawn) [Example 16, 4-(3,5-Dimethyl-cyclohexyloxy)-2-morpholin-4-yl-pyrimidine-5-carboxylic acid (2H-tetrazol-5-yl)-amide], the IC50 was 210 nM. In the case of `CC(C)c1ccc(Oc2nc(N3CCOCC3)ncc2C(=O)Nc2nn[nH]n2)cc1` [Example 17, 4-(4-Isopropyl-phenoxy)-2-morpholin-4-yl-pyrimidine-5-carboxylic acid (2H-tetrazol-5-yl)-amide], the IC50 is reported as 805 nM. `O=C(Nc1nn[nH]n1)c1cnc(N2CCOCC2)nc1Oc1ccc(C2CCCCC2)cc1` [Example 18, 4-(4-Cyclohexyl-phenoxy)-2-morpholin-4-yl-pyrimidine-5-carboxylic acid (2H-tetrazol-5-yl)-amide] gave an IC50 of 154 nM. Molecule `O=C(Nc1nnn[nH]1)c1cnc(N2CCOCC2)nc1NC1CCCC1` [Example 19, 4-Cyclopentylamino-2-morpholin-4-yl-pyrimidine-5-carboxylic acid (1H-tetrazol-5-yl)-amide] has an IC50 of 32700 nM. `O=C(Nc1nnn[nH]1)c1cnc(N2CCOCC2)nc1NCc1ccccc1` [Example 20, 4-Benzylamino-2-morpholin-4-ylpyrimidine-5-carboxylic acid (1H-tetrazol-5-yl)-amide] was tested, and the IC50 was 39100 nM. Molecule `O=C(Nc1nnn[nH]1)c1cnc(N2CCOCC2)nc1NC1CCCCC1` [Example 21, 4-Cyclohexylamino-2-morpholin-4-yl-pyrimidine-5-carboxylic acid (1H-tetrazol-5-yl)-amide] has an IC50 of 28600 nM. For `Cc1nc(N2CCOCC2)nc(OC2CCCCCC2)c1C(=O)Nc1nn[nH]n1` [Example 22, 4-Cycloheptyloxy-6-methyl-2-morpholin-4-yl-pyrimidine-5-carboxylic acid (2H-tetrazol-5-yl)-amide], the IC50 was 8440 nM.
